Measurements taken from patent US12492173B2, “Herbicidal substituted N-tetrazolyl aryl carboxamides” (Bayer Aktiengesellschaft, priority 2019, dated 2025).

Columns and labels:
Assay type in all cases: in vivo
Polygonum convolvulus [1] = experiment: Post-emergence herbicidal action, POLCO
Procedure, shortened: (§1)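 Treatment: post-emergence spray, one-leaf stage. Medium: sandy loam, greenhouse. Carrier: 600–800 l/ha water, 0.2% wetting agent. Read-out: visual % activity at ~3 weeks, untreated plants as reference.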

Avena fatua = experiment: Post-emergence herbicidal action, AVEFA; parameters: key: % herbicidal action vs untreated; 100 = plants died, 0 = like control
Procedure, shortened: as §1

Alopecurus myosuroides = experiment: Post-emergence herbicidal action, ALOMY; parameters: key: % herbicidal action vs untreated; 100 = plants died, 0 = like control
Procedure, shortened: as §1

Viola tricolor = experiment: Pre-emergence herbicidal action, VIOTR; settings: dosage 320 g/ha; for herbicidal activity VIOTR: scored visually after 3 weeks vs untreated controls (100% = plants have died)
Procedure, shortened: (§2)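 Seeds sown in sandy loam in pots and covered with soil; compounds formulated as WP or EC were sprayed onto the soil surface as aqueous suspension/emulsion at 600 to 800 l/ha water with 0.2% wetting agent. Greenhouse growth; visual damage scored after 3 weeks versus untreated controls (100% = plants died, 0% = like control).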

Setaria viridis = experiment: Post-emergence herbicidal action, SETVI; parameters: key: % herbicidal action vs untreated; 100 = plants died, 0 = like control
Procedure, shortened: as §1

Matricaria inodora = experiment: Pre-emergence herbicidal action, MATIN; parameters: key to Herbicidal action against MATIN: % activity: 100 = plants have died, 0 = like control plants; settings: for herbicidal activity MATIN: scored visually after 3 weeks vs untreated controls (100% = plants have died)
Procedure, shortened: as §2

Polygonum convolvulus [2] = experiment: Pre-emergence herbicidal action, POLCO; settings: for herbicidal activity POLCO: dosage 320 g/ha, scored visually after 3 weeks vs untreated controls (100% = plants have died)
Procedure, shortened: as §2

[3] = comparative experiment, 20 g of a.i./ha
[4] = comparative experiment, post-emergence, 5 g of a.i./ha

SMILES	herbicidal activity VIOTR (Viola tricolor) [%]	herbicidal activity MATIN (Matricaria inodora; dosage 320 g/ha) [%]	herbicidal action POLCO (Polygonum convolvulus [1]; Dosage 80 g/ha)	herbicidal action AVEFA (Avena fatua; Dosage 80 g/ha)	herbicidal action SETVI (Setaria viridis; Dosage 80 g/ha)	herbicidal activity POLCO (Polygonum convolvulus [2]) [%]	also measured
Cn1nnnc1NC(=O)c1ccc(C(F)(F)F)c(C[S+](C)[O-])c1Cl (racemic) [Example 1-297]	100	100					herbicidal action POLCO (Polygonum convolvulus [1]; post-emergence, dosage 80 g/ha): 80%; herbicidal action AVEFA (Avena fatua; post-emergence, dosage 80 g/ha): 100%; herbicidal action ALOMY (Alopecurus myosuroides; post-emergence, dosage 80 g/ha): 100%; herbicidal action SETVI (Setaria viridis; post-emergence, dosage 80 g/ha): 80%; Herbicidal action against MATIN (Matricaria inodora; [3]): 100
Cc1c(C(=O)Nc2nnnn2C)ccc(C(F)(F)F)c1CS(C)(=O)=O [Example 1-85]	100	100	80	80	100	90	
CSCc1c(C(F)F)ccc(C(=O)Nc2nnnn2C)c1C [Example 1-107, 4-(difluoromethyl)-2-methyl-3-[(methylsulfanyl)methyl]-N-(1-methyl-1H-tetrazol-5-yl)benzamide]	90	100	90	80	90	80	
Cc1c(C(=O)Nc2nnnn2C)ccc(C(F)F)c1CS(C)(=O)=O [Example 1-109]	100	90			90	90	
COc1c(C(=O)Nc2nnnn2C)ccc(C(F)(F)F)c1CSC [Example 1-134]	100	100	90	90	100	80	Herbicidal action against POLCO (Polygonum convolvulus [1]; post-emergence, dosage 80 g/ha): 80; Herbicidal action against SETVI (Setaria viridis; post-emergence, dosage 80 g/ha): 100; Herbicidal action against POLCO (Polygonum convolvulus [2]; [3]): 30
CSCc1c(C(F)(F)F)ccc(C(=O)Nc2nnnn2C)c1SC [Example 1-161]	100	100		100	100		herbicidal action ALOMY (Alopecurus myosuroides; Dosage 80 g/ha): 90
CSCc1c(C(F)(F)F)ccc(C(=O)Nc2nnnn2C)c1F [Example 1-242]	100	100		80	90	80	
Cn1nnnc1NC(=O)c1ccc(C(F)(F)F)c(C[S+](C)[O-])c1F (stereo not shown) [Example 1-243]	100	100		80	100		
Cn1nnnc1NC(=O)c1ccc(C(F)(F)F)c(CS(C)(=O)=O)c1F [Example 1-244]	100	100			100		
CSCc1c(C(F)(F)F)ccc(C(=O)Nc2nnnn2C)c1Cl [Example 1-296]	100	100					herbicidal action AVEFA (Avena fatua; post-emergence, dosage 80 g/ha): 90%; herbicidal action ALOMY (Alopecurus myosuroides; post-emergence, dosage 80 g/ha): 100%; herbicidal action SETVI (Setaria viridis; post-emergence, dosage 80 g/ha): 100%
Cn1nnnc1NC(=O)c1ccc(C(F)(F)F)c(CS(C)(=O)=O)c1Cl [Example 1-298]	100	100					Herbicidal action against POLCO (Polygonum convolvulus [1]; [4]): 60; herbicidal action POLCO (Polygonum convolvulus [1]; post-emergence, dosage 80 g/ha): 90%; Herbicidal action against AVEFA (Avena fatua; [4]): 60; herbicidal action AVEFA (Avena fatua; post-emergence, dosage 80 g/ha): 100%; Herbicidal action against ALOMY (Alopecurus myosuroides; [4]): 70; herbicidal action ALOMY (Alopecurus myosuroides; post-emergence, dosage 80 g/ha): 100%; herbicidal action SETVI (Setaria viridis; post-emergence, dosage 80 g/ha): 100%
CSCc1c(C(F)(F)F)ccc(C(=O)Nc2nnnn2C)c1Br [Example 1-380]	100	100					herbicidal action POLCO (Polygonum convolvulus [1]; post-emergence, dosage 80 g/ha): 90%; herbicidal action AVEFA (Avena fatua; post-emergence, dosage 80 g/ha): 100%; herbicidal action ALOMY (Alopecurus myosuroides; post-emergence, dosage 80 g/ha): 90%; herbicidal action SETVI (Setaria viridis; post-emergence, dosage 80 g/ha): 90%
Cn1nnnc1NC(=O)c1ccc(C(F)(F)F)c(CS(C)(=O)=O)c1Br [Example 1-382, 2-bromo-3-[(methylsulfonyl)methyl]-N-(1-methyl-1H-tetrazol-5-yl)-4-(trifluoromethyl)benzamide]	100	100	90	100	90	90	
Cn1nnnc1NC(=O)c1ccc(Cl)c(CS(C)(=O)=O)c1Cl [Example 1-561]	100	90		90	100	100	
CCn1nnnc1NC(=O)c1ccc(S(C)(=O)=O)c(CS(C)(=O)=O)c1C [Example 2-39]					100		herbicidal action VIOTR (Viola tricolor): 100%; herbicidal action MATIN (Matricaria inodora; dosage 320 g/ha): 100%
CCn1nnnc1NC(=O)c1ccc(C(F)(F)F)c(C[S+](C)[O-])c1OC (stereo not shown) [Example 2-135]	100	100	90	100	100	90	
CCn1nnnc1NC(=O)c1ccc(C(F)(F)F)c(CS(C)(=O)=O)c1OC [Example 2-136]	100	100		100	100	100	
CCn1nnnc1NC(=O)c1ccc(C)c(CSC)c1Cl [Example 2-287]	90	100	80		90		herbicidal action ALOMY (Alopecurus myosuroides; Dosage 80 g/ha): 100
CCn1nnnc1NC(=O)c1ccc(C(F)(F)F)c(C[S+](C)[O-])c1Br (stereo not shown) [Example 2-381]	100	100					herbicidal action POLCO (Polygonum convolvulus [1]; post-emergence, dosage 80 g/ha): 90%; herbicidal action AVEFA (Avena fatua; post-emergence, dosage 80 g/ha): 100%; herbicidal action ALOMY (Alopecurus myosuroides; post-emergence, dosage 80 g/ha): 80%; herbicidal action SETVI (Setaria viridis; post-emergence, dosage 80 g/ha): 100%
CCCn1nnnc1NC(=O)c1ccc(C(F)(F)F)c(CS(=O)(=O)CC)c1C [Example 3-88]	100	100	90	80	90		
CCCn1nnnc1NC(=O)c1ccc(C(F)F)c(CSC)c1C [Example 3-107]	100	100	90	80	90	90	
CCCn1nnnc1NC(=O)c1ccc(C(F)(F)F)c(CSC)c1OC [Example 3-134]	100	100	90	90	100	80	
CCCn1nnnc1NC(=O)c1ccc(C(F)F)c(C[S+]([O-])CC)c1Cl (stereo not shown) [Example 3-324]	100	100	100	100	100	100	
CCCn1nnnc1NC(=O)c1ccc(C(F)(F)F)c(CS(=O)(=O)CC)c1Br [Example 3-385]	100	100	90		90	80	
